Laboratory results from paper PMC9848300, “Discovery of novel enasidenib analogues targeting inhibition of mutant isocitrate dehydrogenase 2 as antileukaemic agents” (Journal of Enzyme Inhibition and Medicinal Chemistry, 2023).
Read-outs that look alike come from different tables or passages of the source.

Tests used:
T-47D = experiment: NCI 60 antitumor screening (single dose / five doses); type: cell-based; settings: Homo sapiens, T47D
A498 = experiment: as above; type: cell-based; settings: Homo sapiens; A498, five doses (0.01–100 μM); read-out: GI50
K-562 = experiment: as above; type: cell-based; settings: Homo sapiens, K562
HL-60(TB) = experiment: as above; type: cell-based; settings: Homo sapiens
SNB-75 = experiment: as above; type: cell-based; settings: Homo sapiens
RXF 393 = experiment: as above; type: cell-based; settings: Homo sapiens
BT-549 = experiment: as above; type: cell-based; settings: Homo sapiens
[1] = system: 60 human subpanel cancer cell lines; experiment: NCI 60 antitumor screening, mean over the panel (single dose); type: cell-based; settings: mean over 60 cancer cell lines, single dose 10 μM
How it was run: (§1)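 The panel mean likewise comes from single-dose (10 μM) NCI 60-line testing, with inhibition expressed as 100 − G%.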

UACC-257 = experiment: NCI 60 antitumor screening (single dose / five doses); type: cell-based; settings: Homo sapiens; UACC-257 (melanoma), single dose 10 μM; read-out: Growth inhibition percentage (GI %)
SF-539 = experiment: as above; type: cell-based; settings: Homo sapiens
COLO 205 = experiment: as above; type: cell-based; settings: Homo sapiens
HT29 = experiment: as above; type: cell-based, human; settings: for GI50: read-out: GI50
HOP-92 = experiment: as above; type: cell-based; settings: Homo sapiens
LOX IMVI = experiment: as above; type: cell-based; settings: Homo sapiens
HCT-116 = experiment: as above; type: cell-based; settings: Homo sapiens
UO-31 = experiment: as above; type: cell-based; settings: Homo sapiens
MDA-MB-231/ATCC = experiment: as above; type: cell-based; settings: Homo sapiens
SK-MEL-28 = experiment: as above; type: cell-based; settings: Homo sapiens; SK-MEL-28 (melanoma), single dose 10 μM; read-out: Growth inhibition percentage (GI %)
786-0 = experiment: as above; type: cell-based; settings: Homo sapiens
ACHN = experiment: as above; type: cell-based; settings: Homo sapiens
MCF7 = experiment: NCI 60 antitumor screening (single dose); type: cell-based; settings: Homo sapiens; MCF7 (breast cancer), single dose 10 μM; read-out: Growth inhibition percentage (GI %)
How it was run: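 NCI-60 one-dose screen. Dose: 10 μM. Lines: 60 human tumour lines, nine tissue types. Output: GI% = 100 − G%.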

SF-268 = experiment: NCI 60 antitumor screening (single dose); type: cell-based; settings: Homo sapiens; SF-268 (CNS cancer), single dose 10 μM; read-out: Growth inhibition percentage (GI %)
How it was run: as §1

SN 12C = experiment: NCI 60 antitumor screening (single dose / five doses); type: cell-based; settings: Homo sapiens, SN12C; SN 12C (renal cancer), single dose 10 μM; read-out: Growth inhibition percentage (GI %)
SK-MEL-2 = experiment: as above; type: cell-based; settings: Homo sapiens
UACC-62 = experiment: as above; type: cell-based; settings: Homo sapiens; UACC-62 (melanoma), single dose 10 μM; read-out: Growth inhibition percentage (GI %)
HCT-15 = experiment: as above; type: cell-based; settings: Homo sapiens
MDA-MB-435 = experiment: as above; type: cell-based; settings: Homo sapiens; MDA-MB-435 (melanoma), single dose 10 μM; read-out: Growth inhibition percentage (GI %)
DU-145 = experiment: as above; type: cell-based; settings: Homo sapiens
IGROV1 = experiment: as above; type: cell-based; settings: Homo sapiens, IGROV-1

Brc1cccc(/C=N/Nc2nc(N/N=C/c3cccc(Br)c3)nc(N3CCOCC3)n2)c1 [compound 6c, 2,4-Bis[(E)-2-[(3-bromophenyl)methylidene]hydrazin-1-yl]-6-(morpholin-4-yl)-1,3,5-triazine] showed an inhibition at 10 µM (T-47D; T-47D (breast cancer), single dose 10 μM, read-out: Growth inhibition percentage (GI %)) of 43.5%, a GI50 (T-47D; T-47D, five doses (0.01–100 μM), read-out: GI50) of 3.94 µM and a GI50 (A498) of 0.14 µM. For the same molecule, the inhibition at 10 µM (K-562; K-562 (leukaemia), single dose 10 μM, read-out: Growth inhibition percentage (GI %)) was 85.5%, the GI50 (K-562; K-562, five doses (0.01–100 μM), read-out: GI50) was 0.33 µM and the inhibition at 10 µM (HL-60(TB); HL-60(TB) (leukaemia), single dose 10 μM, read-out: Growth inhibition percentage (GI %)) was 110%. The GI50 (HL-60(TB); HL-60(TB), five doses (0.01–100 μM), read-out: GI50) was 0.15 µM, the inhibition at 10 µM (SNB-75; SNB-75 (CNS cancer), single dose 10 μM, read-out: Growth inhibition percentage (GI %)) was -7.5% and the GI50 (SNB-75; SNB-75, five doses (0.01–100 μM), read-out: GI50) was 4.54 µM. For the same molecule, the inhibition at 10 µM (RXF 393; RXF 393 (renal cancer), single dose 10 μM, read-out: Growth inhibition percentage (GI %)) was 168%, the GI50 (RXF 393; RXF 393, five doses (0.01–100 μM), read-out: GI50) was 0.16 µM and the inhibition at 10 µM (BT-549; BT-549 (breast cancer), single dose 10 μM, read-out: Growth inhibition percentage (GI %)) was 47.3%. For the same molecule, the GI50 (BT-549; BT-549, five doses (0.01–100 μM), read-out: GI50) was 3.54 µM, the “Mean GI %” value [1] was 66% and the inhibition at 10 µM (UACC-257) was 64.1%. The inhibition at 10 µM (SF-539; SF-539 (CNS cancer), single dose 10 μM, read-out: Growth inhibition percentage (GI %)) was 43.6%, the GI50 (SF-539; SF-539, five doses (0.01–100 μM), read-out: GI50) was 3.83 µM and the inhibition at 10 µM (COLO 205; COLO 205 (colon cancer), single dose 10 μM, read-out: Growth inhibition percentage (GI %)) was 76.2%. The GI50 (COLO 205; COLO 205, five doses (0.01–100 μM), read-out: GI50) was 1.24 µM, the GI50 (HT29; HT29, five doses (0.01–100 μM)) was 0.61 µM and the GI50 (HT29; Homo sapiens, HT-29, HT29, five doses (0.01–100 μM)) was 0.6 µM. It also gave an inhibition at 10 µM (HT29; Homo sapiens, HT-29, HT29 (colon cancer), single dose 10 μM, read-out: Growth inhibition percentage (GI %)) of 93.4%, an inhibition at 10 µM (HOP-92; HOP-92 (non-small cell lung cancer), single dose 10 μM, read-out: Growth inhibition percentage (GI %)) of 36.2% and a GI50 (HOP-92; HOP-92, five doses (0.01–100 μM), read-out: GI50) of 1.24 µM. For the same molecule, the inhibition at 10 µM (LOX IMVI; LOX IMVI (melanoma), single dose 10 μM, read-out: Growth inhibition percentage (GI %)) was 94.8%, the GI50 (LOX IMVI; LOX IMVI, five doses (0.01–100 μM), read-out: GI50) was 2.66 µM and the inhibition at 10 µM (HCT-116; HCT-116 (colon cancer), single dose 10 μM, read-out: Growth inhibition percentage (GI %)) was 78.8%. It also gave a GI50 (HCT-116; HCT-116, five doses (0.01–100 μM), read-out: GI50) of 0.78 µM, an inhibition at 10 µM (UO-31; UO-31 (renal cancer), single dose 10 μM, read-out: Growth inhibition percentage (GI %)) of 74.5% and a GI50 (UO-31; UO-31, five doses (0.01–100 μM), read-out: GI50) of 1.01 µM. For the same molecule, the GI50 (MDA-MB-231/ATCC; MDA-MB-231/ ATCC, five doses (0.01–100 μM), read-out: GI50) was 3.97 µM, the inhibition at 10 µM (MDA-MB-231/ATCC; MDA-MB-231/ATCC (breast cancer), single dose 10 μM, read-out: Growth inhibition percentage (GI %)) was 33.9% and the inhibition at 10 µM (SK-MEL-28) was 82.9%. The inhibition at 10 µM (786-0; 786-0, 786-0 (renal cancer), single dose 10 μM, read-out: Growth inhibition percentage (GI %)) was 75.5%, the GI50 (786-0; 786-0, five doses (0.01–100 μM), read-out: GI50) was 0.53 µM and the inhibition at 10 µM (ACHN; ACHN (renal cancer), single dose 10 μM, read-out: Growth inhibition percentage (GI %)) was 73.7%. For the same molecule, the GI50 (ACHN; ACHN, five doses (0.01–100 μM), read-out: GI50) was 2.21 µM, the inhibition at 10 µM (MCF7) was 77.9% and the inhibition at 10 µM (SF-268) was 31.6%. It also gave an inhibition at 10 µM (SN 12C) of 55.8%, an inhibition at 10 µM (SK-MEL-2; SK-MEL-2 (melanoma), single dose 10 μM, read-out: Growth inhibition percentage (GI %)) of 97.4% and a GI50 (SK-MEL-2; SK-MEL-2, five doses (0.01–100 μM)) of 2.43 µM. The inhibition at 10 µM (UACC-62) was 44%, the inhibition at 10 µM (HCT-15; HCT-15 (colon cancer), single dose 10 μM, read-out: Growth inhibition percentage (GI %)) was 109% and the GI50 (HCT-15; HCT-15, five doses (0.01–100 μM), read-out: GI50) was 0.42 µM. The inhibition at 10 µM (MDA-MB-435) was 66.6%, the inhibition at 10 µM (DU-145; DU-145 (prostate cancer), single dose 10 μM, read-out: Growth inhibition percentage (GI %)) was 72.7% and the GI50 (DU-145; DU-145, five doses (0.01–100 μM), read-out: GI50) was 1.31 µM. For the same molecule, the inhibition at 10 µM (IGROV1; IGROV1 (ovarian cancer), single dose 10 μM, read-out: Growth inhibition percentage (GI %)) was 57.2% and the GI50 (IGROV1; IGROV1, five doses (0.01–100 μM), read-out: GI50) was 2.92 µM.
